Laboratory results: publication PMC9002393, “Phytochemical Study of Eryngium cymosum F. Delaroche and the Inhibitory Capacity of Its Main Compounds on Two Glucose-Producing Pathway Enzymes” (Plants, 2022)
One block for each molecule: values may come before it.

Assays:
[1] = target: T1, fructose-1,6-bisphosphatase (FBPase) (Rattus norvegicus, UniProt P19112); test: Inhibition assay of fructose-1,6-bisphosphatase (FBPase); format: biochemical; conditions: rat liver cytosolic supernatant; for IC50: mean ± SEM of two assays in duplicate
T1 construct: Enzymatic activity started by adding rat liver cytosolic supernatant diluted 9:1; from tissue; host or cells: rat liver cytosolic supernatant
T1 sequence (P19112 2-363 limits assumed): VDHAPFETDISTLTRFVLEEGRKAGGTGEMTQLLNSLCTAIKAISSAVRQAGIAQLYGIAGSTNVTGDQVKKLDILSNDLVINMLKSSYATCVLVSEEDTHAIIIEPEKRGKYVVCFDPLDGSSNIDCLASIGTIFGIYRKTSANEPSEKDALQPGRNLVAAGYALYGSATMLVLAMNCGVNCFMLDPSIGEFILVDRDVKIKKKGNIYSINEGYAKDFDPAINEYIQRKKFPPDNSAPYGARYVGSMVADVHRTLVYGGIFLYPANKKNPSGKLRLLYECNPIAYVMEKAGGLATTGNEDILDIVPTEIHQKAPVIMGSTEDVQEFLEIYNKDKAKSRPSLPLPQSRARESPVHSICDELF
Description: Buffer (5 μM EDTA, 5 mM MgCl2, 50 mM Tris-HCl, pH 7.2) enriched with 0.1 mM of fructose-1,6-bisphosphate was added and incubated for 5 min with different concentrations of inhibitor or samples (adenosine 5′-monophosphate or compounds) in reaction mixtures of 1 mL. Enzymatic activity started by adding rat liver cytosolic supernatant diluted 9:1 and, 15 min later, ended with the addition of a color reagent previously prepared by mixing 1 volume of 7.5% ammonium molybdate and 0.17% TWEEN 20 with 4 volumes of stock solution (0.12% malachite green in 5 volumes of water with 1 volume of H2SO4). Finally, the reaction mixtures were incubated for 10 min at room temperature and measured at 630 nm.

[2] = tested on: ALR-2; design: method as in earlier work; conditions: read-out: ALR2 IC50; cited from earlier work
[3] = tested on: STZ-induced diabetic rats; design: method as in PMID 20506690; conditions: oral administration for 45 days, 100 mg/kg bw; cited from earlier work
[4] = tested on: ALR-1; design: method as in earlier work; conditions: read-out: ALR1 IC50; cited from earlier work
[5] = tested on: high-fat diet model-STZ-induced rats; design: method as in doi:10.1016/j.bionut.2014.03.006; conditions: consumption for 30 days; cited from earlier work
[6] = tested on: STZ-induced diabetic rats; design: method as in PMID 21433280; conditions: 4 days of ad libitum consumption; cited from earlier work
[7] = target: T2, glucose-6-phosphatase (G6Pase) (Rattus norvegicus, UniProt P43428); test: Inhibition assay of glucose-6-phosphatase (G6Pase); format: biochemical; conditions: rat liver microsomal fractions
T2 sequence (P43428 1-357): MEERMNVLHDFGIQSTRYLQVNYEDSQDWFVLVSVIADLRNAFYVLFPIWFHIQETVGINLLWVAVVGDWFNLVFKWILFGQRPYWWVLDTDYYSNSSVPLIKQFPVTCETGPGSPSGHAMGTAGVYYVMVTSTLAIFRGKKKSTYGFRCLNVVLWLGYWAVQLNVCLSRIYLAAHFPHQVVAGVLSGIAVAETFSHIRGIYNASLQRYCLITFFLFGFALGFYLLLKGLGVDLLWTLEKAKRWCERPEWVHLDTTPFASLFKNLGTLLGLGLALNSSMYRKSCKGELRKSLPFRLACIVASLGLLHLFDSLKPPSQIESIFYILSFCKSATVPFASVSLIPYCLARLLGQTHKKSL
Description: Rat liver microsomal fractions isolated through differential centrifugation were diluted 1:1 in buffer (40 mM imidazole, 250 mM sucrose, pH 7) and added to reaction mixtures, containing buffer and different concentrations of inhibitor samples (chlorogenic acid or compounds). Enzymatic activity started by adding 20 mM of glucose-6-phosphate (G6P). Next, the mixtures were incubated at 22 °C for 20 min and ended with the addition of 900 μL of a solution of 0.42% ammonium molybdate in 1 N H2SO4, 10% SDS, and 10% ascorbic acid. Finally, they were incubated at 45 °C for 20 min and measured at 830 nm.

[8] = tested on: db/db mouse; design: method as in PMID 16644902; conditions: treated for 5 weeks; cited from earlier work
[9] = target: α-amylase; design: method as in PMID 24825096; conditions: cited from earlier work
[10] = target: α-glucosidase; design: method as in PMID 24825096; conditions: cited from earlier work

IC50 [1]: 48.7 µM
Structure (SMILES): Nc1ncnc2c1ncn2[C@@H]1O[C@H](COP(=O)(O)O)[C@@H](O)[C@H]1O [Adenosine 5′-monophosphate, reference compound]

Structure (SMILES): O=C1NC(=O)[C@@]2(CCOc3ccc(F)cc32)N1 [sorbinil]
IC50 [2]: 3.14 ± 0.02 µM

Structure (SMILES): O=C(O)c1ccc(O)c(O)c1 [protocatechuic acid (3), protocatechuic acid]
plasma glucose [3]: decrease in plasma glucose
plasma insulin [3]: increase in plasma insulin

Structure (SMILES): CCCC(CCC)C(=O)O [valproic acid]
IC50 [4]: 57.4 ± 0.89 µM

Structure (SMILES): O=C(/C=C/c1ccc(O)c(O)c1)O[C@H](Cc1ccc(O)c(O)c1)C(=O)O [rosmarinic acid (2), rosmarinic acid]
blood glucose levels [5]: decrease in blood glucose levels
plasma insulin [5]: increase in plasma insulin
blood glucose levels [6]: blood glucose levels were decreased

inhibition over FBPase (in words) [1]: important inhibition
IC50 [1]: 70.9 µM
inhibition over G6Pase (in words) [7]: important inhibition
Structure (SMILES): O=C(/C=C/c1ccc(O)cc1)OC[C@H]1O[C@@H](Oc2c(-c3ccc(O)cc3)oc3cc(O)cc(O)c3c2=O)[C@H](OC(=O)/C=C/c2ccc(O)cc2)[C@@H](O)[C@@H]1O [kaempferol-3-O-(2,6-di-O-trans-ρ-coumaryl)-β-D-glucopyranoside]

Structure (SMILES): O=C(O)/C=C/c1ccc(O)c(O)c1 [Caffeic acid (4), caffeic acid]
blood insulin levels [8]: blood insulin levels increased
plasma glucose levels [8]: plasma glucose levels decreased
α-amylase IC50 [9]: 3.68 µg/mL
inhibition over FBPase (in words) [1]: no inhibition
α-glucosidase IC50 [10]: 4.98 µg/mL
inhibition over G6Pase (in words) [7]: modest inhibition
